In ChEMBL document CHEMBL1135677 (J Med Chem, 2002):

What was measured:
Albumin [1] = molecular target: T1, Albumin (Homo sapiens, UniProt P02768); assay: Second order rate constant after incubation with human serum albumin (HSA) at pH 7.4 in the absence of myristic acid
Albumin [2] = molecular target: T1, Albumin; assay: Second order rate constant after incubation with human serum albumin (HSA) at pH 7.4 in the presence of 5 equiv of myristic acid
MCF7 = assay: Antiproliferative activity assessed in the MCF-7 human mamma carcinoma using the BrdU; type: functional, cell-based
[3] = Antiproliferative activity assessed in the RENCA murine renal cell carcinoma using the BrdU; type: functional, cell-based, Mus musculus
LXFL 529 = assay: Antiproliferative activity assessed in the LXFL529 human lung carcinoma using the BrdU; type: functional, cell-based

T1 sequence (P02768 whole entry): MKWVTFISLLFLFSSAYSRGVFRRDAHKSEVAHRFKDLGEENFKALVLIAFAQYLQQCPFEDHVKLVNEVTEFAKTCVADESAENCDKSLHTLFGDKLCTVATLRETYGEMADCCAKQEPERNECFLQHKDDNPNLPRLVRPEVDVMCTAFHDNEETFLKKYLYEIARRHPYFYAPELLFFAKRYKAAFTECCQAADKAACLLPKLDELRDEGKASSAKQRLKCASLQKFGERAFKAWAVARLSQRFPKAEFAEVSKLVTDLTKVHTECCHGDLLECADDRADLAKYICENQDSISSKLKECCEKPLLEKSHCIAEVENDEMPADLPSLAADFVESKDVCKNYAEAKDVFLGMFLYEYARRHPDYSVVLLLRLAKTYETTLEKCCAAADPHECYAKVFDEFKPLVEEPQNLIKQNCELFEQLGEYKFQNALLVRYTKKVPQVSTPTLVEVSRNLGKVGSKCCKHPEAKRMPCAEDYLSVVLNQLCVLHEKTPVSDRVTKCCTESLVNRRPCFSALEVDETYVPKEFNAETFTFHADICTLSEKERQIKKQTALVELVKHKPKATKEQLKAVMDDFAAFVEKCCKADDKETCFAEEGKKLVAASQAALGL

k2 (Albumin [1])	k2 (Albumin [2])	IC50 (MCF7; Homo sapiens, MCF7)	Structure (SMILES)	IC50 (LXFL 529; Homo sapiens, LXFL 529)	also measured
25.17 M⁻¹ s⁻¹	19 M⁻¹ s⁻¹		COc1cccc2c1C(=O)c1c(O)c3c(c(O)c1C2=O)C[C@@](O)(/C(CO)=N/NC(=O)CCCN1C(=O)C=CC1=O)C[C@]3(C)COC1C[C@H](N)[C@](C)(O)[C@H](C)O1.Cl (some centres undefined)		
10 M⁻¹ s⁻¹	16 M⁻¹ s⁻¹		COc1cccc2c1C(=O)c1c(O)c3c(c(O)c1C2=O)C[C@@](O)(/C(CO)=N/NC(=O)CCCCCCCN1C(=O)C=CC1=O)C[C@]3(C)COC1C[C@H](N)[C@](C)(O)[C@H](C)O1.Cl (some centres undefined)		
17.33 M⁻¹ s⁻¹	37.5 M⁻¹ s⁻¹		COc1cccc2c1C(=O)c1c(O)c3c(c(O)c1C2=O)C[C@@](O)(/C(CO)=N/NC(=O)CCCCCN1C(=O)C=CC1=O)C[C@]3(C)COC1C[C@H](N)[C@](C)(O)[C@H](C)O1.Cl (stereo in doubt; 3)		IC50 (MCF7; mcf7): 1100 nM; IC50 [3]: 1000 nM; IC50 (LXFL 529; lxfl 529): 500 nM
		1000 nM	COc1cccc2c1C(=O)c1c(O)c3c(c(O)c1C2=O)C[C@@](O)(/C(CO)=N/NC(=O)CCCCCN1C(=O)C=CC1=O)C[C@]3(C)COC1C[C@H](N)[C@](C)(O)[C@H](C)O1 (stereo in doubt)	400 nM	IC50 ([3]; Mus musculus): 900 nM
		40 nM	COc1cccc2c1C(=O)c1c(O)c3c(c(O)c1C2=O)C[C@@](O)(C(=O)CO)C[C@@H]3O[C@H]1C[C@H](N)[C@H](O)[C@H](C)O1 [DOXORUBICIN]	40 nM	
		1100 nM	COc1cccc2c1C(=O)c1c(O)c3c(c(O)c1C2=O)C[C@@](O)(/C(CO)=N/NC(=O)CCCCCN1C(=O)CCC1=O)C[C@]3(C)COC1C[C@H](N)[C@](C)(O)[C@H](C)O1 (some centres undefined)	500 nM	IC50 ([3]; Mus musculus): 700 nM
23.83 M⁻¹ s⁻¹	17.83 M⁻¹ s⁻¹		COc1cccc2c1C(=O)c1c(O)c3c(c(O)c1C2=O)C[C@@](O)(/C(CO)=N/NC(=O)CCN1C(=O)C=CC1=O)C[C@]3(C)COC1C[C@H](N)[C@](C)(O)[C@H](C)O1.Cl (some centres undefined)		
